According to patent publication US20220160798A1 (priority 2019, published 2022):

Key:
ICR mice [1] = assay: Morris water maze test, scopolamine-induced dementia; format: in vivo
Method: The deterioration of cognitive ability of Aβ1-42 (Amyloid Beta 1-42) was evaluated in 4-week-old male mice. ICR mice (Bio Link, Eumseong-gun, Chungbuk, Korea) were purchased, adapted to an experimental animal room for one week, and randomly consisted of 6 mice in each group. As experimental groups, a group administered with the Spirulina extract (hereinafter, SM70EE) produced by Example 1 by concentration and a group administered with chlorophyll a were used. As a control group, a group without treating a Spirulina extract, and as a comparative group, a group administered with scopolamine causing dementia and a group administered with donepezil as a dementia therapeutic agent were used. […]
In Experimental Example above, a passive avoidance analysis evaluation test was conducted by applying a Morris's method. […] For adaptation, only the swimming practice was performed for 60 seconds without a platform on the first day of the experiment, a test trial was performed for 4 days in the pool disposed with the platform from the second day, and then escape latency time which was time taken for experimental mice administered with a drug to escape on the platform was measured. […]

ICR mice [2] = assay: Passive avoidance test, scopolamine-induced dementia; format: in vivo
Method: The deterioration of cognitive ability of Aβ1-42 (Amyloid Beta 1-42) was evaluated in 4-week-old male mice. ICR mice (Bio Link, Eumseong-gun, Chungbuk, Korea) were purchased, adapted to an experimental animal room for one week, and randomly consisted of 6 mice in each group. As experimental groups, a group administered with the Spirulina extract (hereinafter, SM70EE) produced by Example 1 by concentration and a group administered with chlorophyll a were used. As a control group, a group without treating a Spirulina extract, and as a comparative group, a group administered with scopolamine causing dementia and a group administered with donepezil as a dementia therapeutic agent were used. During the adaptation period, the feed and water were freely supplied without limitation, and the temperature of 22±2° C. and the humidity of 50±10% were maintained, and the contrast was adjusted to a period of 12 hours (09:00 to 21:00).
An avoidance box (40×20×20 cm) of a passive avoidance measuring device was divided into a light box and a dark box, and a door was installed between the rooms so that the experimental mice moved. […]
After 24 hours, the same test was conducted, and the escape latency time while the experimental mice moved was measured. […]

SMILES	escape latency time (ICR mice [1]; 10 mg/kg oral, scopolamine 1 mg/kg s.c.)	latency time (ICR mice [2]; 10 mg/kg oral, scopolamine 1 mg/kg s.c., vs scopolamine group)	escape latency time (ICR mice [1]; scopolamine only, 1 mg/kg s.c.)	latency time (ICR mice [2]; scopolamine only, 1 mg/kg s.c., vs control group)
C=Cc1c(C)c2cc3nc(c4c5[n-]c(cc6nc(cc1[n-]2)C(C)=C6CC)c(C)c5C(=O)[C@@H]4C(=O)OC)[C@@H](CCC(=O)OC/C=C(\C)CCC[C@H](C)CCC[C@H](C)CCCC(C)C)[C@@H]3C.[Mg+2] [chlorophyll a]	decreased	increased		
CN1[C@@H]2C[C@@H](OC(=O)[C@H](CO)c3ccccc3)C[C@H]1[C@@H]1O[C@@H]12 [scopolamine]			increased	significantly reduced
